In paper PMC2289219 (The Journal of Cell Biology, 1991):

Key:
Bovine brain ECs = format: cell-based
cAMP levels = format: cell-based
BBB = tested on: BBB; parameters: species or system rats; details: rat, in vivo

8-(4-chlorophenylthio)-adenosine-3':5' mono- phosphate, cyclic [CPTcAMP]
Effect on electrical resistance (agents that elevate cAMP) (Bovine brain ECs): increases rapidly

O=S(=O)(NCCNCC=Cc1ccc(Br)cc1)c1cccc2cnccc12 [H-89, N-[2-(p-bromocinnamylamino)ethyl]-5-isoquinolinesulfonamide]
Effect of protein kinase inhibitors on resistance (Bovine brain ECs): decreased

C=C[C@@]1(C)CC(=O)[C@]2(O)[C@@]3(C)[C@@H](O)CCC(C)(C)[C@@H]3[C@H](O)[C@H](OC(C)=O)[C@@]2(C)O1 [forskolin]
Effect on electrical resistance (agents that elevate cAMP) (Bovine brain ECs): also effective | Increase in cAMP levels (cAMP levels): two to threefold increase

CC(C)NCC(O)COc1cccc2ccccc12 (centres unmarked) [propranolol]
Flux across high resistance monolayers (monolayers of brain ECs; Fig. 7 top, about 300 nM labeled tracer, apical to basolateral, 37): moved rapidly

CN[C@@H]1C[C@H]2O[C@@](C)([C@@H]1OC)n1c3ccccc3c3c4c(c5c6ccccc6n2c5c31)C(=O)NC4 [staurosporine]
Increase in ability of peripherally administered BSA to enter the brain (BBB): three to fivefold | Increase in ability of peripherally administered sucrose to enter the brain (BBB): three to fivefold

OC[C@H]1O[C@@](CO)(O[C@H]2O[C@H](CO)[C@@H](O)[C@H](O)[C@H]2O)[C@@H](O)[C@@H]1O [sucrose]
Flux across low resistance monolayers (monolayers of brain ECs): much greater than that across high resistance monolayers

Atrial natriuretic factor
Effect on resistance (elevated cGMP) (Bovine brain ECs): simi- lar effects

IGF-1
Whether the factor accounts for the activity of astrocyte CM (Bovine brain ECs): could not be accounted for fully

PDGF
Whether the factor accounts for the activity of astrocyte CM (Bovine brain ECs): could not be accounted for fully

RO20-1724
Effect on electrical resistance (agents that elevate cAMP) (Bovine brain ECs): increases rapidly | Increase in cAMP levels (cAMP levels): two to threefold increase

calcitonin gene-related peptide
Effect on electrical resistance (agents that elevate cAMP) (Bovine brain ECs): also effective
